Measurements as given in patent publication US9388162B2, “Substituted morphinans and the use thereof” (Purdue Pharma L.P., priority 2012, dated 2016).

Tests used:
κ opioid receptor = κ opioid receptor (Homo sapiens (Human), UniProt P41145); assay: κ-opioid receptor [35S]GTPγS functional assay, U-2 OS cells; format: biochemical; conditions: κ GTP; for EC50: read-out: Activity Response κ EC50 (nM) [mean ± SEM]; for Emax: relative to U69,593, read-out: Activity Response κ Emax (%)
Protocol: Membranes from HEK-293 cells, CHO or U-2 OS cells expressing the recombinant human kappa opioid receptor (κ) were prepared by lysing cells in ice cold hypotonic buffer (2.5 mM MgCl2, 50 mM HEPES, pH 7.4) (10 mL/10 cm dish) followed by homogenization with a tissue grinder/Teflon pestle. Membranes were collected by centrifugation at 30,000×g for 15 min at 4° C. and pellets were resuspended in hypotonic buffer to a final concentration of 1-3 mg/mL. Protein concentrations were determined using the BioRad protein assay reagent with bovine serum albumen as standard. Aliquots of κ receptor membranes were stored at −80° C.
Functional [^35S]GTPγS binding assays were conducted as follows. κ opioid receptor membrane solution was prepared by sequentially adding final concentrations of 0.026 μg/μl κ membrane protein (in-house), 10 μg/mL saponin, 3 μM GDP and 0.20 nM [^35S]GTPγS to binding buffer (100 mM NaCl, 10 mM MgCl2, 20 mM HEPES, pH 7.4) on ice. The prepared membrane solution (190 μl/well) was transferred to 96-shallow well polypropylene plates containing 10 μl of 20× concentrated stock solutions of agonist prepared in DMSO. Plates were incubated for 30 min at a temperature of about 25° C. with shaking. Reactions were terminated by rapid filtration onto 96-well Unifilter GF/B filter plates (Perkin Elmer, Shelton, Conn.) using a 96-well tissue harvester (Packard) and followed by three filtration washes with 200 μl ice-cold binding buffer (10 mM NaH2PO4, 10 mM Na2HPO4, pH 7.4). Filter plates were subsequently dried at 50° C. for 2-3 hours. Fifty μl/well scintillation cocktail (Perkin Elmer, Shelton, Conn.) was added and plates were counted in a Packard Top-Count for 1 min/well.
κ GTP EC50 is the concentration of a compound providing 50% of the maximal response for the compound at a κ receptor.
κ GTP Emax (%) is the maximal effect elicited by a compound relative to the effect elicited by U69,593.
In TABLE 3, binding affinity of certain Compounds of the Invention to the μ- and κ-opioid receptors was determined as described above. In TABLE 4, activity response of certain Compounds of the Invention to the μ- and κ-opioid receptors was determined as described above for functional assays using HEK-293 cells. In TABLE 5, activity response of certain Compounds of the Invention to the μ- and κ-opioid receptors was determined as described above using U-2 OS cells.

μ-opioid receptors = μ-opioid receptors (Homo sapiens (Human), UniProt P35372); assay: μ-opioid receptor [35S]GTPγS functional assay, U-2 OS cells; format: biochemical; conditions: μ GTP; for EC50: read-out: Activity Response μ EC50 (nM) [mean ± SEM]; for Emax: read-out: Activity Response μ Emax (%)
Protocol: [^35S]GTPγS functional assays were conducted using freshly thawed μ-receptor membranes prepared from a cell line expressing recombinant μ opioid receptor in a HEK-293, CHO or U-2 OS cell background or purchased from a commercial source (Perkin Elmer, Shelton, Conn.; or DiscovRx, Fremont, Calif.). Assay reactions were prepared by sequentially adding the following reagents to binding buffer (100 mM NaCl, 10 mM MgCl2, 20 mM HEPES, pH 7.4) on ice (final concentrations indicated): membrane protein (0.026 mg/mL), saponin ([…]), GDP ([…]) and [^35S]GTPγS (0.20 nM; Perkin Elmer, Shelton, Conn.). The prepared membrane solution (190 μl/well) was transferred to 96-shallow well polypropylene plates containing 10 μl of 20× concentrated stock solutions of the agonist [D-Ala^2, N-methyl-Phe^4 Gly-ol^5]-enkephalin (DAMGO) prepared in dimethyl sulfoxide (DMSO). Plates were incubated for 30 min at about 25° C. with shaking. Reactions were terminated by rapid filtration onto 96-well Unifilter GF/B filter plates (Perkin Elmer, Shelton, Conn.) using a 96-well tissue harvester (Perkin Elmer, Shelton, Conn.) followed by three filtration washes with 200 μl of ice-cold wash buffer (10 mM NaH2PO4, 10 mM Na2HPO4, pH 7.4). Filter plates were subsequently dried at 50° C. for 2-3 hours. BetaScint scintillation cocktail (Perkin Elmer, Shelton, Conn.) was added (50 μl/well) and plates were counted using a Packard Top-Count for 1 min/well. Data were analyzed using the sigmoidal dose-response curve fitting functions in GraphPad PRISM v. 3.0, or an in-house function for non-linear, sigmoidal dose-response curve-fitting.
μ GTP EC50 is the concentration of a compound providing 50% of the maximal response for the compound at a μ-opioid receptor.
μ GTP Emax (%) is the maximal effect elicited by a compound relative to the effect elicited by DAMGO, a standard μ agonist. Generally, the μ GTP Emax (%) value measures the efficacy of a compound to treat or prevent pain or other Conditions.
The following tables provide results on the efficacy of binding and activity response of exemplified Compounds of the Invention at the μ- and κ-opioid receptors. In TABLE 3, binding affinity of certain Compounds of the Invention to the μ- and κ-opioid receptors was determined as described above. In TABLE 4, activity response of certain Compounds of the Invention to the μ- and κ-opioid receptors was determined as described above for functional assays using HEK-293 cells. In TABLE 5, activity response of certain Compounds of the Invention to the μ- and κ-opioid receptors was determined as described above using U-2 OS cells.

Compound	EC50 (κ opioid receptor)	Activity Response κ Emax (%) (κ opioid receptor; relative to U69,593)	EC50 (μ-opioid receptors)	Activity Response μ Emax (%) (μ-opioid receptors; relative to DAMGO)	Emax (κ opioid receptor)	Emax (μ-opioid receptors; relative to DAMGO)
COc1ccc2c(c1)[C@]13CCN(CC4CC4)[C@H](C2)[C@]1(O)C[C@H](OCC(C)C)C(=O)C3 [Compound 23, (4bR,7S,8aS,9R)-11-(cyclopropylmethyl)-8a-hydroxy-7-isobutoxy-3-methoxy-8,8a,9,10-tetrahydro-5H-9,4b-(epiminoethano)phenanthren-6(7H)-one]	5560 ± 481 nM	90.0 ± 1.00%	2100 ± 735 nM	15.7 ± 3.71%	–	–
COc1ccc2c(c1)[C@]13CCN(CC4CC4)[C@H](C2)[C@]1(O)C[C@H](O)C(=O)C3 [Compound 25, (4bR,7S,8aS,9R)-11-(cyclopropylmethyl)-7,8a-dihydroxy-3-methoxy-8,8a,9,10-tetrahydro-5H-9,4b-(epiminoethano)phenanthren-6(7H)-one]	876 ± 18.8 nM	–	578 ± 91.8 nM	–	106 ± 3.28%	36 ± 3.51%
COc1ccc2c(c1)[C@]13CCN(CC4CC4)[C@H](C2)[C@]1(O)C[C@H](NC(=O)C(C)C)C(=O)C3 [Compound 26, N-((4bR,7S,8aS,9R)-11-(cyclopropylmethyl)-8a-hydroxy-3-methoxy-6-oxo-6,7,8,8a,9,10-hexahydro-5H-9,4b-(epiminoethano)phenanthren-7-yl)isobutyramide]	7210 ± 438 nM	–	7110 ± 633 nM	–	104 ± 2.52%	31 ± 2.08%
CC(C)C(=O)N[C@H]1C[C@@]2(O)[C@H]3Cc4ccc(O)cc4[C@@]2(CCN3CC2CC2)CC1=O [Compound 27, N-((4bR,7S,8aS,9R)-11-(cyclopropylmethyl)-3,8a-dihydroxy-6-oxo-6,7,8,8a,9,10-hexahydro-5H-9,4b-(epiminoethano)phenanthren-7-yl)isobutyramide]	24.7 ± 3.18 nM	–	> 200000 nM	–	92.7 ± 3.18%	8 ± 2.12%
CC(=O)N[C@H]1C[C@@]2(O)[C@H]3Cc4ccc(O)cc4[C@@]2(CCN3CC2CC2)CC1=O [Compound 28, N-((4bR,7S,8aS,9R)-11-(cyclopropylmethyl)-3,8a-dihydroxy-6-oxo-6,7,8,8a,9,10-hexahydro-5H-9,4b-(epiminoethano)phenanthren-7-yl)acetamide]	27.1 ± 3.29 nM	–	> 200000 nM	–	86.7 ± 2.4%	2.5%
CCC(=O)N[C@H]1C[C@@]2(O)[C@H]3Cc4ccc(O)cc4[C@@]2(CCN3CC2CC2)CC1=O [Compound 29, N-((4bR,7S,8aS,9R)-11-(cyclopropylmethyl)-3,8a-dihydroxy-6-oxo-6,7,8,8a,9,10-hexahydro-5H-9,4b-(epiminoethano)phenanthren-7-yl)propionamide]	14.6 ± 1.86 nM	–	> 200000 nM	–	98.7 ± 5.21%	7.25 ± 1.89%
CC(C)CCC(=O)N[C@H]1C[C@@]2(O)[C@H]3Cc4ccc(O)cc4[C@@]2(CCN3CC2CC2)CC1=O [Compound 30, N-((4bR,7S,8aS,9R)-11-(cyclopropylmethyl)-3,8a-dihydroxy-6-oxo-6,7,8,8a,9,10-hexahydro-5H-9,4b-(epiminoethano)phenanthren-7-yl)-4-methylpentanamide]	1.61 ± 0.12 nM	–	9.61 ± 0.83 nM	–	97.7 ± 3.18%	51 ± 2.65%
CC(C)CCCC(=O)N[C@H]1C[C@@]2(O)[C@H]3Cc4ccc(O)cc4[C@@]2(CCN3CC2CC2)CC1=O [Compound 31, N-((4bR,7S,8aS,9R)-11-(cyclopropylmethyl)-3,8a-dihydroxy-6-oxo-6,7,8,8a,9,10-hexahydro-5H-9,4b-(epiminoethano)phenanthren-7-yl)-5-methylhexanamide]	2.59 ± 0.14 nM	–	9.65 ± 0.22 nM	–	90.7 ± 6.57%	73.7 ± 2.6%
CC(C)(C)C(=O)N[C@H]1C[C@@]2(O)[C@H]3Cc4ccc(O)cc4[C@@]2(CCN3CC2CC2)CC1=O [Compound 32, N-((4bR,7S,8aS,9R)-11-(cyclopropylmethyl)-3,8a-dihydroxy-6-oxo-6,7,8,8a,9,10-hexahydro-5H-9,4b-(epiminoethano)phenanthren-7-yl)pivalamide]	17.5 ± 2.66 nM	–	18.6 ± 8.05 nM	–	113 ± 3.61%	11.3 ± 0.88%
CC(C)CC(=O)N[C@H]1C[C@@]2(O)[C@H]3Cc4ccc(O)cc4[C@@]2(CCN3CC2CC2)CC1=O [Compound 33, N-((4bR,7S,8aS,9R)-11-(cyclopropylmethyl)-3,8a-dihydroxy-6-oxo-6,7,8,8a,9,10-hexahydro-5H-9,4b-(epiminoethano)phenanthren-7-yl)-3-methylbutanamide]	36.1 ± 3.14 nM	–	> 200000 nM	–	52 ± 4.93%	2.5%
O=C(N[C@H]1C[C@@]2(O)[C@H]3Cc4ccc(O)cc4[C@@]2(CCN3CC2CC2)CC1=O)C1CC1 [Compound 34, N-((4bR,7S,8aS,9R)-11-(cyclopropylmethyl)-3,8a-dihydroxy-6-oxo-6,7,8,8a,9,10-hexahydro-5H-9,4b-(epiminoethano)phenanthren-7-yl)cyclopropanecarboxamide]	12.6 ± 2.04 nM	–	> 200000 nM	–	101 ± 3.33%	6.33 ± 2.19%
O=C(N[C@H]1C[C@@]2(O)[C@H]3Cc4ccc(O)cc4[C@@]2(CCN3CC2CC2)CC1=O)C1CCCC1 [Compound 35, N-((4bR,7S,8aS,9R)-11-(cyclopropylmethyl)-3,8a-dihydroxy-6-oxo-6,7,8,8a,9,10-hexahydro-5H-9,4b-(epiminoethano)phenanthren-7-yl)cyclopentanecarboxamide]	13.6 ± 1.04 nM	–	> 200000 nM	–	85.7 ± 2.4%	2%
O=C(N[C@H]1C[C@@]2(O)[C@H]3Cc4ccc(O)cc4[C@@]2(CCN3CC2CC2)CC1=O)c1ccccc1 [Compound 36, N-((4bR,7S,8aS,9R)-11-(cyclopropylmethyl)-3,8a-dihydroxy-6-oxo-6,7,8,8a,9,10-hexahydro-5H-9,4b-(epiminoethano)phenanthren-7-yl)benzamide]	4.28 ± 0.6 nM	–	12.7 ± 2.92 nM	–	99 ± 4.73%	20.3 ± 0.33%
COc1ccc2c(c1)[C@]13CCN(C)[C@H](C2)[C@]1(O)C[C@H](CC(=O)O)C(=O)C3 [Compound 60, 2-((4bR,7R,8aS,9R)-8a-hydroxy-3-methoxy-11-methyl-6-oxo-6,7,8,8a,9,10-hexahydro-5H-9,4b-(epiminoethano)phenanthren-7-yl)acetic acid]	14900 ± 1320 nM	–	–	–	84.3 ± 0.67%	–
